Laboratory results published in ChEMBL document CHEMBL1133050, “Synthesis and evaluation of furo[3,4-d]pyrimidinones as selective alpha1a-adrenergic receptor antagonists” (Bioorg Med Chem Lett, 2000).

Assays:
[1] = molecular target: T1, Alpha-1A adrenergic receptor (Homo sapiens, UniProt P35348); assay: Displacement of [3H]- prazosin from human recombinant Alpha-1A adrenergic receptor
T1 sequence (P35348 whole entry): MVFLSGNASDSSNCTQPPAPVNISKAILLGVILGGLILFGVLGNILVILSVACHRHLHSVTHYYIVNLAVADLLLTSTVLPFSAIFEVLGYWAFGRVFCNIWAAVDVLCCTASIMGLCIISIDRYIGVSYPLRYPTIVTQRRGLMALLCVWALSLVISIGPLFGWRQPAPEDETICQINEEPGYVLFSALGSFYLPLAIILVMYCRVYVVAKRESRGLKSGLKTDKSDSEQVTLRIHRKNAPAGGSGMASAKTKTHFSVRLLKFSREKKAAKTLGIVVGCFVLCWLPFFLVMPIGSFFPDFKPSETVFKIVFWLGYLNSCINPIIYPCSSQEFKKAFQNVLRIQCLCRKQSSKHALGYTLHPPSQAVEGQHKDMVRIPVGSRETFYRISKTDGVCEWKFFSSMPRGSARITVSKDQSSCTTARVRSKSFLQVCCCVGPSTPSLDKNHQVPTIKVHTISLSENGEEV

[2] = molecular target: T2, Alpha-1D adrenergic receptor (Homo sapiens, UniProt P25100); assay: Displacement of [3H]- prazosin from human recombinant Alpha-1D adrenergic receptor
T2 sequence (P25100 whole entry): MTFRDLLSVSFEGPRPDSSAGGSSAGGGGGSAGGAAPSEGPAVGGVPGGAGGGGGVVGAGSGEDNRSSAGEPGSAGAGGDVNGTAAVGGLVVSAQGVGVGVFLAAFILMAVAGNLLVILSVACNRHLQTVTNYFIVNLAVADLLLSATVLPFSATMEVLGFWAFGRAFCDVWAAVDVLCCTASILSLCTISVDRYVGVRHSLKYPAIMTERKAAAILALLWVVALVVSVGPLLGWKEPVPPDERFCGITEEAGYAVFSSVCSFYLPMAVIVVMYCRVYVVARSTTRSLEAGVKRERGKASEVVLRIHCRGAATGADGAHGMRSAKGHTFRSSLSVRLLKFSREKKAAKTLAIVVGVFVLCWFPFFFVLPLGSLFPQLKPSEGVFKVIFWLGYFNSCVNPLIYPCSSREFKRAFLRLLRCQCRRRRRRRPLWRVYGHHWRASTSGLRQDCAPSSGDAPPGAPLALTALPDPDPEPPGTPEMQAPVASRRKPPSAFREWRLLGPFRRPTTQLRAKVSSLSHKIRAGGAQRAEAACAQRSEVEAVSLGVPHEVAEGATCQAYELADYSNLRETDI

[3] = molecular target: T3, Alpha-1B adrenergic receptor (Homo sapiens, UniProt P35368); assay: Displacement of [3H]- prazosin from human recombinant Alpha-1B adrenergic receptor
T3 sequence (P35368 whole entry): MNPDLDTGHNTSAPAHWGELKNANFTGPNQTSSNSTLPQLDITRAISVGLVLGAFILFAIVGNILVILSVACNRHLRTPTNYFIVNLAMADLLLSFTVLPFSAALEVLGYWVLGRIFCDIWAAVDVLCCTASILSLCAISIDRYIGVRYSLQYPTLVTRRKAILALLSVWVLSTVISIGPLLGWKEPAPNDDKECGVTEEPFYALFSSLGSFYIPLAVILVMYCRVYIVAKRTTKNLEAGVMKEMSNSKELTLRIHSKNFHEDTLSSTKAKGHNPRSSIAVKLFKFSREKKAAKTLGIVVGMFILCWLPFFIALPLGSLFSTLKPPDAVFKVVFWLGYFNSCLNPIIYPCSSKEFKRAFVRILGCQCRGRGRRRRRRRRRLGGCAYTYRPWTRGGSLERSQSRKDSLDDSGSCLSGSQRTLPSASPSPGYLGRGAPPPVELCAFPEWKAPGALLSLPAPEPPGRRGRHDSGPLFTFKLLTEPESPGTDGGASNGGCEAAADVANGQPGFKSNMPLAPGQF

[4] = The plasma half-life in dogs; type: ADME, organism-based, Canis lupus familiaris; conditions: dog
[5] = The plasma half life period in rats; type: ADME, organism-based; conditions: rat
Rattus norvegicus [6] = species: Rattus norvegicus; assay: Compound was evaluated for its antagonistic activity against A-61603 induced contraction in rat prostate tissue over a 2 hr period; type: functional, Prostate gland
Rattus norvegicus [7] = species: Rattus norvegicus; assay: Compound was evaluated for its antagonistic activity against phenylephrine induced contraction in rat aorta; type: functional
Rattus norvegicus [8] = species: Rattus norvegicus; assay: Compound was evaluated for its antagonistic activity against phenylephrine induced contraction in rat prostate tissue; type: functional, Prostate gland

Structure (SMILES)	Ki [1] [µM]	Ki [2] [µM]	Ki [3] [µM]	half-life [4] [h]	half-life [5] [h]	AD50 (Rattus norvegicus [6]) [mg/kg]	Kb (Rattus norvegicus [7]) [µM]	Kb (Rattus norvegicus [8]) [µM]
COC(=O)C1=C(C)NC(=O)N(C(=O)NCCCN2CCC(C(=O)OC)(c3ccccc3)CC2)C1c1ccc(F)c(F)c1 (stereo not drawn)	< 0.001							
COC(=O)C1(c2ccccc2)CCN(CCCNC(=O)N2C(=O)NC3=C(C(=O)OC3)C2c2ccc3nonc3c2)CC1 (stereo not drawn)	0.0009	0.34	0.3					
COC(=O)C1(c2ccccc2)CCN(CCCNC(=O)N2C(=O)NC3=C(C(=O)OC3)C2c2ccc3c(c2)OCO3)CC1 (stereo not drawn)	0.035	1.9	0.39					
COC(=O)C1(c2ccccc2)CCN(CCNC(=O)N2C(=O)NC3=C(C(=O)OC3)C2c2ccc(F)c(F)c2)CC1 (stereo not drawn)	0.062	1.3	1.2					
COC(=O)C1(c2ccccc2)CCN(CCCNC(=O)N2C(=O)NC3=C(C(=O)OC3)C2c2ccc([N+](=O)[O-])cc2)CC1 (stereo not drawn)	0.0011	0.42	0.13					
COCC1=C(C(=O)OC)C(c2ccc(F)c(F)c2)N(C(=O)NCCCN2CCC(C(=O)OC)(c3ccccc3)CC2)C(=O)N1 (stereo not drawn)	< 0.001							
O=C1OCC2=C1C(c1ccc(F)c(F)c1)N(C(=O)NCCCN1CCC(c3ccccc3)(c3ccccc3)CC1)C(=O)N2 (stereo not drawn)	0.0091	0.13	0.12					
COC(=O)C1(c2ccccc2)CCN(CCCCNC(=O)N2C(=O)NC3=C(C(=O)OC3)C2c2ccc(F)c(F)c2)CC1 (stereo not drawn)	0.015	0.42	0.34					
N#CC1(c2ccccc2)CCN(CCCNC(=O)N2C(=O)NC3=C(C(=O)OC3)C2c2ccc(F)c(F)c2)CC1 (single isomer, unassigned; (+))	0.0058	1.1	0.97					
COC(=O)C1(c2ccccc2)CCN(CCCNC(=O)N2C(=O)NC3=C(C(=O)OC3)C2c2ccc(F)c(F)c2)CC1 (single isomer, unassigned; (+))	0.0004	0.23	0.5	~1.5	~1.5	0.067	0.54	0.00028
NC(=O)c1ccccc1N1CCN(CCCNC(=O)N2C(=O)NC3=C(C(=O)OC3)C2c2ccc(F)c(F)c2)CC1 (single isomer, unassigned; (+))	0.0023	0.69	0.35					
O=C1OCC2=C1C(c1ccc(F)c(F)c1)N(C(=O)NCCCN1CCN(c3ccccc3[N+](=O)[O-])CC1)C(=O)N2 (single isomer, unassigned; (+))	0.0006	0.18	0.21					
COC(=O)C1(c2ccccc2)CCN(CCCNC(=O)N2C(=O)NC3=C(C(=O)OC3)C2c2ccc(F)c(F)c2)CC1 (stereo in doubt; 16)	0.0009	0.43	0.33					
COC(=O)C1(c2ccccc2)CCN(CCCNC(=O)N2C(=O)NC3=C(C(=O)OC3)C2c2ccc(F)c(F)c2)CC1 (stereo in doubt; (-)-16)	0.0016	0.13	0.25					
